In US20070128217A1 (priority 2003, published 2007):

Tests used:
[1] = tested on: rabbit serum obtained by immunizing a rabbit with the SARS-CoV strain Frankfurt 1; assay type: binding; design: Binding of a rabbit serum to linear peptides / Binding of a rabbit serum to looped peptides / Rabbit serum linear peptides / Rabbit serum looped peptides / Binding of a rabbit serum to linear peptides of protein N of SARS-CoV Urbani (Rabbit serum linear peptides) / Binding of a rabbit serum to looped/cyclic peptides of protein N of SARS-CoV Urbani (Rabbit serum looped peptides): unit not given here
[2] = tested on: control sera (pooled serum of ten healthy LUMC hospital workers; commercial negative donor pooled serum from the Dutch bloodbank); assay type: binding, human; design: Binding of Control serum LUMC to linear peptides / Binding of Control serum Blood-bank to linear peptides / Binding of Control serum LUMC to looped peptides / Binding of Control Serum Blood-Bank to Looped peptides / Binding of Control serum LUMC to linear peptides of the protein M of SARS-CoV Urbani / Binding of Control serum Blood-bank to linear peptides of the protein M of SARS-CoV Urbani / Binding of Control serum LUMC to looped peptides of the protein M of SARS-CoV Urbani / Binding of Control Serum Blood-Bank to Looped peptides of the protein M of SARS-CoV Urbani: unit not given here
[3] = tested on: antibodies in sera from SARS patients (sera 1a, 1b, 2, 6, 37, 62, London, SARS-yellow, SARS-green); assay type: binding, human; design: Binding of serum 6 to linear peptides of protein X1 of SARS-CoV Urbani / Binding of serum 37 to linear peptides of protein X1 of SARS-CoV Urbani / Binding of serum 6 to looped/cyclic peptide (PEPSCAN-ELISA) / Binding of serum 37 to looped/cyclic peptide (PEPSCAN-ELISA) / Binding of serum 37 to looped/cyclic peptides of protein X1 of SARS-CoV Urbani / Binding of serum 6 to linear peptides of protein X2 / Binding of serum 37 to linear peptides of protein X2 / Binding of serum 37 to looped/cyclic peptides of protein X2 of SARS-CoV Urbani / Binding of serum 6 to linear peptides of protein M of SARS-CoV Urbani / Binding of serum 37 to linear peptides of protein M of SARS-CoV Urbani / Binding of serum 6 to looped/cyclic peptides of protein M of SARS-CoV Urbani / Binding of serum 37 to looped/cyclic peptides of protein M of SARS-CoV Urbani / Binding of serum 6 to linear peptides of protein X3 of SARS-CoV Urbani / Binding of serum 37 to linear peptides of protein X3 of SARS-CoV Urbani / Binding of serum 37 to looped/cyclic peptides of protein X3 of SARS-CoV Urbani / Binding of serum 6 to linear peptides of protein X4 of SARS-CoV Urbani / Binding of serum 37 to linear peptides of protein X4 of SARS-CoV Urbani / Binding of serum 37 to looped/cyclic peptides of protein X4 of SARS-CoV Urbani / Binding of serum 6 to linear peptides of protein X5 of SARS-CoV Urbani / Binding of serum 37 to linear peptides of protein X5 of SARS-CoV Urbani / Binding of serum 37 to looped/cyclic peptides of protein X5 of SARS-CoV Urbani / Binding of serum 6 to linear peptides of protein N of SARS-CoV Urbani / Binding of serum 37 to linear peptides of protein N of SARS-CoV Urbani / Binding of serum 6 to linear peptide (PEPSCAN-ELISA) / Binding of serum 1a to looped/cyclic peptides of protein N of SARS-CoV Urbani / Binding of serum 1b to looped/cyclic peptides of protein N of SARS-CoV Urbani / Binding of serum 2 to looped/cyclic peptides of protein N of SARS-CoV Urbani / Binding of serum 6 to looped/cyclic peptides of protein N of SARS-CoV Urbani / Binding of serum 37 to looped/cyclic peptides of protein N of SARS-CoV Urbani / Binding of serum 62 to looped/cyclic peptides of protein N of SARS-CoV Urbani / Binding of serum London to looped/cyclic peptides of protein N of SARS-CoV Urbani / Binding of serum SARS-green to looped/cyclic peptides of protein N of SARS-CoV Urbani: unit not given here

FMMSRRRLLACLCKH was tested, and the “Binding of a rabbit serum to linear peptides” value [1] was 0.4, the “Binding of a rabbit serum to looped peptides” value [1] was 0.6 and the “Binding of Control Serum Blood-Bank to Looped peptides” value [2] was 0.6. For the same sequence, the “Binding of Control serum Blood-bank to linear peptides” value [2] was 0.7, the “Binding of Control serum LUMC to linear peptides” value [2] was 0.4 and the “Binding of Control serum LUMC to looped peptides” value [2] was 0.5. For the same sequence, the “Binding of serum 1a to linear peptides of protein X2” value [3] was 0.7, the “Binding of serum 1a to looped/cyclic peptides of protein X2 of SARS-CoV Urbani” value [3] was 0.4 and the “Binding of serum 1b to linear peptides of protein X2” value [3] was 0.5. The “Binding of serum 1b to looped/cyclic peptides of protein X2 of SARS-CoV Urbani” value [3] was 0.4, the “Binding of serum 2 to linear peptides of protein X2” value [3] was 0.5 and the “Binding of serum 2 to looped/cyclic peptides of protein X2 of SARS-CoV Urbani” value [3] was 0.3. For the same sequence, the “Binding of serum 6 to linear peptides of protein X2” value [3] was 0.7, the “Binding of serum 6 to looped/cyclic peptides of protein X2 of SARS-CoV Urbani” value [3] was 0.5 and the “Binding of serum 37 to linear peptides of protein X2” value [3] was 0.6. For the same sequence, the “Binding of serum 37 to looped/cyclic peptides of protein X2 of SARS-CoV Urbani” value [3] was 0.3, the “Binding of serum 62 to linear peptides of protein X2” value [3] was 0.6 and the “Binding of serum 62 to looped/cyclic peptides of protein X2 of SARS-CoV Urbani” value [3] was 0.4. For the same sequence, the “Binding of serum London to linear peptides of protein X2” value [3] was 0.7, the “Binding of serum London to looped/cyclic peptides of protein X2 of SARS-CoV Urbani” value [3] was 1.2 and the “Binding of serum SARS-green to linear peptides of protein X2” value [3] was 0.5. For the same sequence, the “Binding of serum SARS-green to looped/cyclic peptides of protein X2 of SARS-CoV Urbani” value [3] was 0.3, the “Binding of serum SARS-yellow to linear peptides of protein X2” value [3] was 0.5 and the “Binding of serum SARS-yellow to looped/cyclic peptides of protein X2 of SARS-CoV Urbani” value [3] was 0.5.

With FRIAIWNLDVIISSI the “Rabbit serum linear peptides” value [1] was 0.3, the “Rabbit serum looped peptides” value [1] was 0.2 and the “Binding of Control Serum Blood-Bank to Looped peptides of the protein X3 of SARS-CoV Urbani” value [2] was 0.8. The “Binding of Control serum Blood-bank to linear peptides of the protein X3 of SARS-CoV Urbani” value [2] was 0.7, the “Binding of Control serum LUMC to linear peptides of the protein X3 of SARS-CoV Urbani” value [2] was 0.6 and the “Binding of Control serum LUMC to looped peptides of the protein X3 of SARS-CoV Urbani” value [2] was 0.7. The “Binding of serum 1a to linear peptides of protein X3 of SARS-CoV Urbani” value [3] was 0.8, the “Binding of serum 1a to looped/cyclic peptides of protein X3 of SARS-CoV Urbani” value [3] was 0.7 and the “Binding of serum 1b to linear peptides of protein X3 of SARS-CoV Urbani” value [3] was 0.5. The “Binding of serum 1b to looped/cyclic peptides of protein X3 of SARS-CoV Urbani” value [3] was 0.5, the “Binding of serum 2 to linear peptides of protein X3 of SARS-CoV Urbani” value [3] was 0.6 and the “Binding of serum 2 to looped/cyclic peptides of protein X3 of SARS-CoV Urbani” value [3] was 0.7. For the same sequence, the “Binding of serum 6 to linear peptides of protein X3 of SARS-CoV Urbani” value [3] was 0.4, the “Binding of serum 6 to looped/cyclic peptides of protein X3 of SARS-CoV Urbani” value [3] was 0.3 and the “Binding of serum 37 to linear peptides of protein X3 of SARS-CoV Urbani” value [3] was 0.5. For the same sequence, the “Binding of serum 37 to looped/cyclic peptides of protein X3 of SARS-CoV Urbani” value [3] was 0.6, the “Binding of serum 62 to linear peptides of protein X3 of SARS-CoV Urbani” value [3] was 0.7 and the “Binding of serum 62 to looped/cyclic peptides of protein X3 of SARS-CoV Urbani” value [3] was 0.6. The “Binding of serum London to linear peptides of protein X3 of SARS-CoV Urbani” value [3] was 0.7, the “Binding of serum London to looped/cyclic peptides of protein X3 of SARS-CoV Urbani” value [3] was 0.2 and the “Binding of serum SARS-green to linear peptides of protein X3 of SARS-CoV Urbani” value [3] was 0.4. The “Binding of serum SARS-green to looped/cyclic peptides of protein X3 of SARS-CoV Urbani” value [3] was 0.2, the “Binding of serum SARS-yellow to linear peptides of protein X3 of SARS-CoV Urbani” value [3] was 0.7 and the “Binding of serum SARS-yellow to looped/cyclic peptides of protein X3 of SARS-CoV Urbani” value [3] was 0.8.

For FRLFARTRSMWSFNP, the “Rabbit serum linear peptides” value [1] was 0.2, the “Rabbit serum looped peptides” value [1] was 0.2 and the “Binding of Control Serum Blood-Bank to Looped peptides of the protein M of SARS-CoV Urbani” value [2] was 0.8. The “Binding of Control serum Blood-bank to linear peptides of the protein M of SARS-CoV Urbani” value [2] was 0.8, the “Binding of Control serum LUMC to linear peptides of the protein M of SARS-CoV Urbani” value [2] was 0.8 and the “Binding of Control serum LUMC to looped peptides of the protein M of SARS-CoV Urbani” value [2] was 0.6. For the same sequence, the “Binding of serum 1a to linear peptides of protein M of SARS-CoV Urbani” value [3] was 0.8, the “Binding of serum 1a to looped/cyclic peptides of protein M of SARS-CoV Urbani” value [3] was 0.7 and the “Binding of serum 1b to linear peptides of protein M of SARS-CoV Urbani” value [3] was 0.5. The “Binding of serum 1b to looped/cyclic peptides of protein M of SARS-CoV Urbani” value [3] was 0.5, the “Binding of serum 2 to linear peptides of protein M of SARS-CoV Urbani” value [3] was 0.6 and the “Binding of serum 2 to looped/cyclic peptides of protein M of SARS-CoV Urbani” value [3] was 0.6. For the same sequence, the “Binding of serum 6 to linear peptides of protein M of SARS-CoV Urbani” value [3] was 0.5, the “Binding of serum 6 to looped/cyclic peptides of protein M of SARS-CoV Urbani” value [3] was 0.8 and the “Binding of serum 37 to linear peptides of protein M of SARS-CoV Urbani” value [3] was 0.5. The “Binding of serum 37 to looped/cyclic peptides of protein M of SARS-CoV Urbani” value [3] was 0.6, the “Binding of serum 62 to linear peptides of protein M of SARS-CoV Urbani” value [3] was 0.5 and the “Binding of serum 62 to looped/cyclic peptides of protein M of SARS-CoV Urbani” value [3] was 0.6. The “Binding of serum London to linear peptides of protein M of SARS-CoV Urbani” value [3] was 0.4, the “Binding of serum London to looped/cyclic peptides of protein M of SARS-CoV Urbani” value [3] was 0.3 and the “Binding of serum SARS-green to linear peptides of protein M of SARS-CoV Urbani” value [3] was 0.6. The “Binding of serum SARS-green to looped/cyclic peptides of protein M of SARS-CoV Urbani” value [3] was 0.3, the “Binding of serum SARS-yellow to linear peptides of protein M of SARS-CoV Urbani” value [3] was 0.2 and the “Binding of serum SARS-yellow to looped/cyclic peptides of protein M of SARS-CoV Urbani” value [3] was 0.5.
